Assay results from ChEMBL document CHEMBL1201862, “PubChem BioAssay data set” (2004).
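Tested at 5 concentrations; 48 h exposure; 96-well plates; endpoints linearly interpolated, else capped at highest concentration. Abbreviation: GI50, concentration required for 50% inhibition of growth.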 Calls of active or inactive are those of the source. Cut-off read from the data, not from the text of the source: active = GI50 up to about 1.1 µM and inactive = higher.

Experiments:
Test in all cases: NCI-60 cell line screen, 48 h
HOP-62 = tested on: HOP-62
SNB-78 = tested on: SNB-78
M19-MEL = tested on: M19-MEL
UO-31 = tested on: UO-31
NCI-H226 = tested on: NCI-H226
COLO 205 = tested on: COLO 205
NCI-H522 = tested on: NCI-H522
KM-20L2 = tested on: KM-20L2
HOP-92 = tested on: HOP-92
RXF 631 = tested on: RXF 631
OVCAR-8 = tested on: OVCAR-8
SF-295 = tested on: SF-295
LXFL 529 = tested on: LXFL 529
NCI-H23 = tested on: NCI-H23
HOP-18 = tested on: HOP-18
Malme-3M = tested on: Malme-3M
U-251 = tested on: U-251
OVCAR-3 = tested on: OVCAR-3
EKVX = tested on: EKVX
HL-60 = tested on: HL-60
SK-MEL-2 = tested on: SK-MEL-2
HCT-116 = tested on: HCT-116
ACHN = tested on: ACHN
SR = tested on: SR
DLD-1 = tested on: DLD-1
NCI-H460 = tested on: NCI-H460
SNB-19 = tested on: SNB-19
DMS-114 = tested on: DMS-114
SN12C = tested on: SN12C
RPMI-8226 = tested on: RPMI-8226
SF-539 = tested on: SF-539
SF-268 = tested on: SF-268
UACC-257 = tested on: UACC-257
LOX IMVI = tested on: LOX IMVI
K562 = tested on: K562
MOLT-4 = tested on: MOLT-4
HCC 2998 = tested on: HCC 2998
OVCAR-5 = tested on: OVCAR-5
TK-10 = tested on: TK-10
SW-620 = tested on: SW-620
SNB-75 = tested on: SNB-75
786-0 = tested on: 786-0
OVCAR-4 = tested on: OVCAR-4
KM12 = tested on: KM12
SK-MEL-28 = tested on: SK-MEL-28
A549 = tested on: A549
A498 = tested on: A498
IGROV-1 = tested on: IGROV-1
HCT-15 = tested on: HCT-15
HT-29 = tested on: HT-29
SK-OV-3 = tested on: SK-OV-3
UACC-62 = tested on: UACC-62
RXF 393 = tested on: RXF 393
CCRF-CEM = tested on: CCRF-CEM
M14 = tested on: M14
SK-MEL-5 = tested on: SK-MEL-5
CAKI-1 = tested on: CAKI-1
DMS-273 = tested on: DMS-273
XF498 = tested on: XF498

CC1(C)C2CCC13CS(=O)(=O)N1O[C@]13C(=O)O2 (stereo partly drawn)
GI50 (HOP-62): > 100 µM (inactive)
GI50 (SNB-78): > 100 µM (inactive)
GI50 (M19-MEL): > 100 µM (inactive)
GI50 (UO-31): > 100 µM (inactive)
GI50 (NCI-H226): > 100 µM (inactive)
GI50 (COLO 205): > 100 µM (inactive)
GI50 (NCI-H522): > 100 µM (inactive)
GI50 (KM-20L2): > 100 µM (inactive)
GI50 (HOP-92): > 100 µM (inactive)
GI50 (RXF 631): > 100 µM (inactive)
GI50 (OVCAR-8): > 100 µM (inactive)
GI50 (SF-295): > 100 µM (inactive)
GI50 (LXFL 529): > 100 µM (inactive)
GI50 (NCI-H23): > 100 µM (inactive)
GI50 (HOP-18): > 100 µM (inactive)
GI50 (Malme-3M): > 100 µM (inactive)
GI50 (U-251): > 100 µM (inactive)
GI50 (OVCAR-3): > 100 µM (inactive)
GI50 (EKVX): > 100 µM (inactive)
GI50 (HL-60): > 100 µM (inactive)
GI50 (SK-MEL-2): > 100 µM (inactive)
GI50 (HCT-116): > 100 µM (inactive)
GI50 (ACHN): > 100 µM (inactive)
GI50 (SR): > 100 µM (inactive)
GI50 (DLD-1): > 100 µM (inactive)
GI50 (NCI-H460): > 100 µM (inactive)
GI50 (SNB-19): > 100 µM (inactive)
GI50 (DMS-114): > 100 µM (inactive)
GI50 (SN12C): > 100 µM (inactive)
GI50 (RPMI-8226): > 100 µM (inactive)
GI50 (SF-539): > 100 µM (inactive)
GI50 (SF-268): > 100 µM (inactive)
GI50 (UACC-257): > 100 µM (inactive)
GI50 (LOX IMVI): > 100 µM (inactive)
GI50 (K562): > 100 µM (inactive)
GI50 (MOLT-4): > 100 µM (inactive)
GI50 (HCC 2998): > 100 µM (inactive)
GI50 (OVCAR-5): > 100 µM (inactive)
GI50 (TK-10): > 100 µM (inactive)
GI50 (SW-620): > 100 µM (inactive)
GI50 (SNB-75): 60.8 µM (inactive)
GI50 (786-0): > 100 µM (inactive)
GI50 (OVCAR-4): > 100 µM (inactive)
GI50 (KM12): > 100 µM (inactive)
GI50 (SK-MEL-28): > 100 µM (inactive)
GI50 (A549): > 100 µM (inactive)
GI50 (A498): > 100 µM (inactive)
GI50 (IGROV-1): > 100 µM (inactive)
GI50 (HCT-15): > 100 µM
GI50 (HT-29): > 100 µM (inactive)

Cn1nc(-c2ccccc2)c(C(=O)/C=C/c2ccc(Cl)cc2)c(N2CCOCC2)c1=O
GI50 (HOP-62): 10.5 µM (inactive)
GI50 (M19-MEL): 5.24 µM (inactive)
GI50 (SK-OV-3): 5.51 µM (inactive)
GI50 (UO-31): 9.71 µM (inactive)
GI50 (UACC-62): 3.27 µM (inactive)
GI50 (COLO 205): 1.99 µM (inactive)
GI50 (NCI-H522): 2.43 µM (inactive)
GI50 (RXF 393): 2.34 µM (inactive)
GI50 (KM-20L2): 3.45 µM (inactive)
GI50 (CCRF-CEM): 2.45 µM (inactive)
GI50 (HOP-92): 2.11 µM (inactive)
GI50 (RXF 631): 4.79 µM (inactive)
GI50 (OVCAR-8): 4.13 µM (inactive)
GI50 (SF-295): 0.412 µM (active)
GI50 (LXFL 529): 2.92 µM (inactive)
GI50 (NCI-H23): 2.74 µM (inactive)
GI50 (HOP-18): 4.48 µM (inactive)
GI50 (U-251): 3.37 µM (inactive)
GI50 (M14): 3.98 µM (inactive)
GI50 (EKVX): 8.49 µM (inactive)
GI50 (HL-60): 1.85 µM (inactive)
GI50 (HCT-116): 1.85 µM (inactive)
GI50 (ACHN): 4.42 µM (inactive)
GI50 (DLD-1): 2.96 µM (inactive)
GI50 (NCI-H460): 2.64 µM (inactive)
GI50 (SNB-19): 14.3 µM (inactive)
GI50 (DMS-114): 2.78 µM (inactive)
GI50 (SN12C): 5.7 µM (inactive)
GI50 (RPMI-8226): 2.34 µM (inactive)
GI50 (SF-539): 2.5 µM (inactive)
GI50 (SF-268): 3.48 µM (inactive)
GI50 (LOX IMVI): 3.44 µM (inactive)
GI50 (SK-MEL-5): 4.98 µM (inactive)
GI50 (K562): 2.79 µM (inactive)
GI50 (MOLT-4): 0.752 µM (active)
GI50 (CAKI-1): 0.652 µM (active)
GI50 (TK-10): 7.94 µM (inactive)
GI50 (SW-620): 4.12 µM (inactive)
GI50 (DMS-273): 3.3 µM (inactive)
GI50 (786-0): 2.87 µM (inactive)
GI50 (SK-MEL-28): 2.58 µM (inactive)
GI50 (A549): 3.89 µM (inactive)
GI50 (A498): 4.22 µM (inactive)
GI50 (IGROV-1): 4.22 µM (inactive)
GI50 (HCT-15): 2.74 µM
GI50 (HT-29): 1.83 µM (inactive)

CN(C(=O)C12C3C4C1C1C2C3C41C(=O)N(C)C(C)(C)C)C(C)(C)C (stereo not drawn)
GI50 (HOP-62): > 50 µM (inactive)
GI50 (SNB-78): > 50 µM (inactive)
GI50 (M19-MEL): > 50 µM (inactive)
GI50 (SK-OV-3): > 50 µM (inactive)
GI50 (UO-31): > 50 µM (inactive)
GI50 (UACC-62): > 50 µM (inactive)
GI50 (COLO 205): > 50 µM (inactive)
GI50 (NCI-H522): > 50 µM (inactive)
GI50 (KM-20L2): > 50 µM (inactive)
GI50 (CCRF-CEM): > 50 µM (inactive)
GI50 (HOP-92): > 50 µM (inactive)
GI50 (RXF 631): > 50 µM (inactive)
GI50 (OVCAR-8): > 50 µM (inactive)
GI50 (SF-295): > 50 µM (inactive)
GI50 (LXFL 529): > 50 µM (inactive)
GI50 (Malme-3M): > 50 µM (inactive)
GI50 (U-251): > 50 µM (inactive)
GI50 (OVCAR-3): > 50 µM (inactive)
GI50 (M14): > 50 µM (inactive)
GI50 (EKVX): > 50 µM (inactive)
GI50 (HL-60): > 50 µM (inactive)
GI50 (HCT-116): > 50 µM (inactive)
GI50 (ACHN): > 50 µM (inactive)
GI50 (SR): > 50 µM (inactive)
GI50 (SNB-19): > 50 µM (inactive)
GI50 (DMS-114): > 50 µM (inactive)
GI50 (SN12C): > 50 µM (inactive)
GI50 (SF-539): > 50 µM (inactive)
GI50 (SF-268): > 50 µM (inactive)
GI50 (SK-MEL-5): > 50 µM (inactive)
GI50 (K562): > 50 µM (inactive)
GI50 (MOLT-4): > 50 µM (inactive)
GI50 (CAKI-1): > 50 µM (inactive)
GI50 (HCC 2998): > 50 µM (inactive)
GI50 (SW-620): > 50 µM (inactive)
GI50 (SNB-75): 21.6 µM (inactive)
GI50 (DMS-273): > 50 µM (inactive)
GI50 (786-0): > 50 µM (inactive)
GI50 (SK-MEL-28): > 50 µM (inactive)
GI50 (XF498): > 50 µM (inactive)
GI50 (A549): > 50 µM (inactive)
GI50 (A498): > 50 µM (inactive)
GI50 (IGROV-1): > 50 µM (inactive)
GI50 (HCT-15): > 50 µM
GI50 (HT-29): > 50 µM (inactive)

COc1ccc(C(=O)NCCN(C)C)c2nc3ccccc3nc12
GI50 (HOP-62): 3.3 µM (inactive)
GI50 (SNB-78): 3.72 µM (inactive)
GI50 (M19-MEL): 3.15 µM (inactive)
GI50 (SK-OV-3): 19.5 µM (inactive)
GI50 (NCI-H226): 3.48 µM (inactive)
GI50 (UACC-62): 5.38 µM (inactive)
GI50 (COLO 205): 3.46 µM (inactive)
GI50 (NCI-H522): 11.7 µM (inactive)
GI50 (RXF 393): 11.4 µM (inactive)
GI50 (KM-20L2): 4.95 µM (inactive)
GI50 (HOP-92): 9.51 µM (inactive)
GI50 (RXF 631): 9.12 µM (inactive)
GI50 (OVCAR-8): 4.3 µM (inactive)
GI50 (SF-295): 6.82 µM (inactive)
GI50 (LXFL 529): 6.7 µM (inactive)
GI50 (NCI-H23): 4.72 µM (inactive)
GI50 (HOP-18): > 30.8 µM (inactive)
GI50 (Malme-3M): 2.3 µM (inactive)
GI50 (U-251): 4.79 µM (inactive)
GI50 (OVCAR-3): 5.25 µM (inactive)
GI50 (M14): 5.37 µM (inactive)
GI50 (EKVX): 6.41 µM (inactive)
GI50 (SK-MEL-2): 4.01 µM (inactive)
GI50 (HCT-116): 2.24 µM (inactive)
GI50 (ACHN): 2.79 µM (inactive)
GI50 (SR): 0.708 µM (active)
GI50 (DLD-1): 4.23 µM (inactive)
GI50 (SNB-19): 6.01 µM (inactive)
GI50 (DMS-114): 3.39 µM (inactive)
GI50 (SN12C): 3.62 µM (inactive)
GI50 (RPMI-8226): 3.21 µM (inactive)
GI50 (SF-539): 4.57 µM (inactive)
GI50 (UACC-257): 3.56 µM (inactive)
GI50 (LOX IMVI): 2.01 µM (inactive)
GI50 (SK-MEL-5): 4.81 µM (inactive)
GI50 (K562): 2.05 µM (inactive)
GI50 (MOLT-4): 1.94 µM (inactive)
GI50 (HCC 2998): 5.15 µM (inactive)
GI50 (OVCAR-5): 8.61 µM (inactive)
GI50 (TK-10): 5.18 µM (inactive)
GI50 (SW-620): 2.7 µM (inactive)
GI50 (SNB-75): 8.11 µM (inactive)
GI50 (DMS-273): 4.6 µM (inactive)
GI50 (786-0): 9.06 µM (inactive)
GI50 (OVCAR-4): 4.09 µM (inactive)
GI50 (KM12): 4.82 µM (inactive)
GI50 (SK-MEL-28): 5.89 µM (inactive)
GI50 (A549): 4.93 µM (inactive)
GI50 (A498): 4.21 µM (inactive)
GI50 (IGROV-1): 3.14 µM (inactive)
GI50 (HCT-15): 3.66 µM
GI50 (HT-29): 2.76 µM (inactive)
